Results taken from ChEMBL document CHEMBL1141925, “Carbonic anhydrase inhibitors. Inhibition of the cytosolic and tumor-associated carbonic anhydrase isozymes I, II, and IX with a series of 1,3,4-thiadiazole- and 1,2,4-triazole-thiols” (Bioorg Med Chem Lett, 2005).
pKi: −log10 of the molar value.

How the values were obtained:
Carbonic anhydrase 9 = Carbonic anhydrase 9 (Homo sapiens, UniProt Q16790); experiment: Inhibitory constant against human Carbonic anhydrase IX
Carbonic anhydrase 1 = Carbonic anhydrase 1 (Homo sapiens, UniProt P00915)
Chain of Carbonic anhydrase 1 (P00915 whole entry): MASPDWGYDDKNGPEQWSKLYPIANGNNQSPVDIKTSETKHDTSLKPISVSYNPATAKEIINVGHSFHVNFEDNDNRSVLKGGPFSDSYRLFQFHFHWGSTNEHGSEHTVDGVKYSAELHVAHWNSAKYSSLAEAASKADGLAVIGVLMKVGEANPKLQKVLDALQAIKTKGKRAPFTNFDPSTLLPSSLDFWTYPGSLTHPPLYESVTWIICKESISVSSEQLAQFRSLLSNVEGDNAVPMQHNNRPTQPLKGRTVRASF

Carbonic anhydrase 2 = Carbonic anhydrase 2 (Homo sapiens, UniProt P00918)
Description: Inhibitory constant against human Carbonic anhydrase II

Row | Compound | pKi (Carbonic anhydrase 9) | pKi (Carbonic anhydrase 1) | pKi (Carbonic anhydrase 2)
1 | O=C(Nc1nnc(S)s1)c1c(F)c(F)c(F)c(F)c1F | 3.51 | 3.51 | 3.89
2 | O=[N+]([O-])c1ccccc1S(=O)(=O)Nc1n[nH]c(=S)s1 | 3.50 | 3.52 | 3.64
3 | O=C(Nc1nnc(S)s1)NS(=O)(=O)Nc1nnc(S)s1 | 3.49 | – | –
4 | CCCn1c(-c2ccc(S(=O)(=O)c3ccc(Cl)cc3)cc2)n[nH]c1=S | 5.01 | 3.26 | 3.21
5 | CCCCn1c(S)nnc1-c1ccc(S(=O)(=O)c2ccccc2)cc1 | – | 3.38 | 3.22
6 | Cc1ccc(-n2c(-c3ccc(S(=O)(=O)c4ccc(Br)cc4)cc3)n[nH]c2=S)cc1 | 4.22 | 3.60 | 3.60
7 | CCCn1c(S)nnc1-c1ccc(S(=O)(=O)c2ccccc2)cc1 | 3.92 | 3.54 | 3.56
8 | CCCn1c(-c2ccc(S(=O)(=O)c3ccc(Br)cc3)cc2)n[nH]c1=S | 3.11 | 3.29 | 3.42
9 | O=C(Nc1nnc(S)s1)N(c1ccccc1)c1ccccc1 | 3.57 | – | –
10 | O=C(Nc1ccc(Cl)c(Cl)c1)Nc1nnc(S)s1 | 3.57 | – | –
11 | CN(C)c1cccc2c(S(=O)(=O)Nc3nnc(S)s3)cccc12 | 3.53 | – | –
12 | O=C(Nc1nnc(S)s1)c1ccccn1 | 3.51 | – | –

Second part, the compound after the results:

Row | pKi (Carbonic anhydrase 9) | pKi (Carbonic anhydrase 1) | pKi (Carbonic anhydrase 2) | Compound
13 | 4.01 | 3.56 | 3.64 | CCCCn1c(-c2ccc(S(=O)(=O)c3ccc(Cl)cc3)cc2)n[nH]c1=S
14 | 5.02 | 5.35 | 5.06 | CC(=O)Nc1nnc(S)s1
15 | 3.62 | – | – | O=C(O)c1cccnc1C(=O)Nc1nnc(S)s1
16 | 3.59 | – | – | O=[N+]([O-])c1ccc(SNc2n[nH]c(=S)s2)cc1
17 | 5.03 | – | – | Nc1nnc(S)s1
18 | 3.49 | 3.60 | 3.52 | Cc1cccc(-n2c(-c3ccc(S(=O)(=O)c4ccc(Br)cc4)cc3)n[nH]c2=S)c1
19 | 4.94 | – | – | CCCCn1c(-c2ccc(S(=O)(=O)c3ccc(Br)cc3)cc2)n[nH]c1=S
